Results reported in patent publication US9920032B2, “Heterocyclic compounds useful as pim kinase inhibitors” (Incyte Corporation, priority 2015, dated 2018).
pIC50: −log10 of the molar value.

How the values were obtained:
Assay type in all cases: biochemical
Pim-1 = Pim-1 (Homo sapiens (Human), UniProt P11309); test: Pim-1 kinase assay; details: 1 mM ATP; read-out: PIM1 IC50
Protocol: (§1) Pim-1 and Pim-3 kinase assays—20 μL reactions were run in white 384 well polystyrene plates dotted with 0.8 μL compound/DMSO in the assay buffer (50 mM Tris, pH 7.5, 0.01% Tween-20, 5 mM mgCl2, 0.01% BSA, 5 mM DTT), containing 0.05 μM Biotin-labeled BAD peptide substrate (AnaSpec 62269), 1 mM ATP, and 2.5 pM (Pim-1, Invitrogen PV3503) or 1.25 pM (Pim-3, Millipore 14-738) enzyme for 1 h at 25° C. Reactions were stopped by addition of 10 μL STOP Buffer (150 mM Tris, pH=7.5, 150 mM NaCl, 75 mM EDTA, 0.01% Tween-20, 0.3% BSA,) supplemented with Phospho-Bad (Ser112) Antibody (Cell Signaling 9291) diluted 666-fold, and Streptavidin donor beads (PerkinElmer 6760002) along with Protein-A acceptor beads (PerkinElmer 6760137) at […]. Supplementation of the STOP buffer with beads and stopping the reactions were done under reduced light. Prior to the stopping reactions STOP buffer with beads was preincubated for 1 h in the dark at room temperature. After stopping the reactions, plates were incubated for 1 h in the dark at room temperature before reading on a PHERAstar FS plate reader (BMG Labtech) under reduced light.

Pim-3 = Pim-3 (Homo sapiens (Human), UniProt Q86V86); test: Pim-3 kinase assay; details: 1 mM ATP; read-out: PIM3 IC50
Protocol: as §1

Pim-2 = Pim-2 (Homo sapiens (Human), UniProt Q9P1W9); test: Pim-2 kinase assay; details: 1 mM ATP; read-out: PIM2 IC50
Chain of Pim-2 (Q9P1W9 whole entry): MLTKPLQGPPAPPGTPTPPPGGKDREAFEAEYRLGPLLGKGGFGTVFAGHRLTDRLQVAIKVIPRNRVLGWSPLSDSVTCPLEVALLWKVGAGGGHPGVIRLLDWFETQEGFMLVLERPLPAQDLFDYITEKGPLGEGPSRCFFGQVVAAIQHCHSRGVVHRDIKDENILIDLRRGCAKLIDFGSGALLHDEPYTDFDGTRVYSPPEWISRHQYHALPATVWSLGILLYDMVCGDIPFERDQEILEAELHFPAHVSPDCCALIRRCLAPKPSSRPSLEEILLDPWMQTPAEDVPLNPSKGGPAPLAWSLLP
Protocol: Pim-2 kinase assay—20 μL reactions were run in white 384 well polystyrene plates dotted with 0.8 μL compound/DMSO in the assay buffer (50 mM Tris, pH 7.5, 0.01% Tween-20, 5 mM mgCl2, 0.01% BSA, 5 mM DTT), containing 0.05 μM Fluorescein-labeled CREBtide peptide substrate (Invitrogen PV3508), 1 mM ATP, and 1 nM enzyme (Invitrogen PV3649) for 2 h at 25° C. Reactions were stopped by addition of 10 μL TR-FRET Dilution Buffer (Invitrogen PV3574) with 30 mM EDTA and 1.5 nM LanthaScreen Tb-CREB pSer133 antibody (Invitrogen PV3566). After 30 min. incubation at room temperature, plates were read on a PHERAstar FS plate reader (BMG Labtech).

Chain of Pim-1 (P11309 whole entry): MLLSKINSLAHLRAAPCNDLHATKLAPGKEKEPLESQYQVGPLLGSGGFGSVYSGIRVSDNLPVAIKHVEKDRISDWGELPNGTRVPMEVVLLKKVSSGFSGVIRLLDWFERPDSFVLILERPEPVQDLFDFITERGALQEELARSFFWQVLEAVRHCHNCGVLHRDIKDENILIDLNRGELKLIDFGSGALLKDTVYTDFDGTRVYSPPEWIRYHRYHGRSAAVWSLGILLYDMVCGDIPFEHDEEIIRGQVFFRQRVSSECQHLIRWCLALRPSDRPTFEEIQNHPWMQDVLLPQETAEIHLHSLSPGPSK

SMILES: CC1CCN(c2cnc3c(C(=O)Nc4cnccc4[C@@H]4C[C@H](C)C[C@H](N)C4)ccc(F)c3c2)CC1 [Example 46, N-(4-((1R,3S,5S)-3-Amino-5-methylcyclohexyl)pyridin-3-yl)-5-fluoro-3-(4-methylpiperidin-1-yl)quinoline-8-carboxamide]
- pIC50 (Pim-1): ≥ 8.00
- pIC50 (Pim-3): ≥ 8.00
- pIC50 (Pim-2): 6.00 to 7.00

SMILES: CCN(C)c1cnc2c(C(=O)Nc3cnccc3[C@@H]3C[C@H](C)C[C@H](N)C3)ccc(F)c2c1 [Example 20, N-(4-((1R,3S,5S)-3-Amino-5-methylcyclohexyl)pyridin-3-yl)-3-(ethyl(methyl)amino)-5-fluoroquinoline-8-carboxamide]
- pIC50 (Pim-1): ≥ 8.00
- pIC50 (Pim-3): ≥ 8.00
- pIC50 (Pim-2): ≥ 7.00

SMILES: C[C@@H]1C[C@H](N)C[C@H](c2ccncc2NC(=O)c2ccc(F)c3cc(N4CC[C@@H](C#N)C4)cnc23)C1 [Example 8, N-{4-[(1R,3S,5S)-3-Amino-5-methylcyclohexyl]pyridin-3-yl}-3-[(3R)-3-cyanopyrrolidin-1-yl]-5-fluoroquinoline-8-carboxamide]
- pIC50 (Pim-1): ≥ 8.00
- pIC50 (Pim-3): ≥ 8.00
- pIC50 (Pim-2): ≥ 7.00

SMILES: C[C@@H]1C[C@H](N)C[C@H](c2ccncc2NC(=O)c2ccc(F)c3cc(N4CCOC[C@H]4C)nnc23)C1 [Example 94, N-{4-[(1R,3S,5S)-3-Amino-5-methylcyclohexyl]pyridin-3-yl}-5-fluoro-3-[(3R)-3-methylmorpholin-4-yl]cinnoline-8-carboxamide]
- pIC50 (Pim-1): ≥ 8.00
- pIC50 (Pim-3): ≥ 8.00
- pIC50 (Pim-2): ≥ 7.00

SMILES: C[C@@H]1C[C@H](N)C[C@H](c2ccncc2NC(=O)c2ccc(F)c3cc(N4CCC4)cnc23)C1 [Example 4, N-{4-[(1R,3S,5S)-3-Amino-5-methylcyclohexyl]pyridin-3-yl}-3-azetidin-1-yl-5-fluoroquinoline-8-carboxamide]
- pIC50 (Pim-1): ≥ 8.00
- pIC50 (Pim-3): 7.30 to 8.00
- pIC50 (Pim-2): 6.00 to 7.00

SMILES: C[C@@H]1C[C@H](N)C[C@H](c2ccncc2NC(=O)c2ccc(F)c3cc(Nc4ccccc4C#N)cnc23)C1 [Example 129, N-(4-((1R,3S,5S)-3-Amino-5-methylcyclohexyl)pyridin-3-yl)-3-(2-cyanophenylamino)-5-fluoroquinoline-8-carboxamide]
- pIC50 (Pim-1): ≥ 8.00
- pIC50 (Pim-3): ≥ 8.00
- pIC50 (Pim-2): 6.00 to 7.00

SMILES: C[C@@H]1C[C@H](N)C[C@H](c2ccncc2NC(=O)c2ccc(F)c3cc(-c4ccccc4C#N)cnc23)C1 [Example 17, N-{4-[(1R,3S,5S)-3-Amino-5-methylcyclohexyl]pyridin-3-yl}-3-(2-cyanophenyl)-5-fluoroquinoline-8-carboxamide]
- pIC50 (Pim-1): ≥ 8.00
- pIC50 (Pim-3): ≥ 8.00
- pIC50 (Pim-2): 6.00 to 7.00

SMILES: C[C@@H]1C[C@H](N)C[C@H](c2ccncc2NC(=O)c2ccc(F)c3cc(N4CCOC[C@@H]4C)cnc23)C1 [Example 33, N-(4-((1R,3S,5S)-3-Amino-5-methylcyclohexyl)pyridin-3-yl)-5-fluoro-3-((S)-3-methylmorpholino)quinoline-8-carboxamide]
- pIC50 (Pim-1): ≥ 8.00
- pIC50 (Pim-3): ≥ 8.00
- pIC50 (Pim-2): ≥ 7.00

SMILES: CC1CCC(C)N1c1cnc2c(C(=O)Nc3cnccc3[C@@H]3C[C@H](C)C[C@H](N)C3)ccc(F)c2c1 (stereo partly drawn) [Example 36, N-(4-((1R,3S,5S)-3-Amino-5-methylcyclohexyl)pyridin-3-yl)-3-(2,5-dimethylpyrrolidin-1-yl)-5-fluoroquinoline-8-carboxamide]
- pIC50 (Pim-1): ≥ 8.00
- pIC50 (Pim-3): 7.30 to 8.00
- pIC50 (Pim-2): 6.00 to 7.00

SMILES: C[C@@H]1C[C@H](N)C[C@H](c2ccncc2NC(=O)c2ccc(F)c3cc(-c4c(F)cccc4F)nnc23)C1 [Example 91, N-{4-[(1R,3S,5S)-3-amino-5-methylcyclohexyl]pyridin-3-yl}-3-(2,6-difluorophenyl)-5-fluorocinnoline-8-carboxamide]
- pIC50 (Pim-1): ≥ 8.00
- pIC50 (Pim-3): 7.30 to 8.00
- pIC50 (Pim-2): 5.00 to 6.00

SMILES: C[C@@H]1C[C@H](N)C[C@H](c2ccncc2NC(=O)c2cccc3cc(N4CCC[C@H]4C)cnc23)C1 [Example 68, N-(4-((1R,3S,5S)-3-Amino-5-methylcyclohexyl)pyridin-3-yl)-3-((R)-2-methylpyrrolidin-1-yl)quinoline-8-carboxamide]
- pIC50 (Pim-1): ≥ 8.00
- pIC50 (Pim-3): ≥ 8.00
- pIC50 (Pim-2): ≥ 7.00

SMILES: CO[C@@H]1CCN(c2cnc3c(C(=O)Nc4cnccc4[C@@H]4C[C@H](C)C[C@H](N)C4)ccc(F)c3c2)C1 [Example 49, N-(4-((1R,3S,5S)-3-amino-5-methylcyclohexyl)pyridin-3-yl)-5-fluoro-3-((R)-3-methoxypyrrolidin-1-yl)quinoline-8-carboxamide]
- pIC50 (Pim-1): ≥ 8.00
- pIC50 (Pim-3): ≥ 8.00
- pIC50 (Pim-2): 6.00 to 7.00

SMILES: C[C@@H]1C[C@H](N)C[C@H](c2ccncc2NC(=O)c2ccc(F)c3cc(-c4cn[nH]c4)cnc23)C1 [Example 66, N-(4-((1R,3S,5S)-3-amino-5-methylcyclohexyl)pyridin-3-yl)-5-fluoro-3-(1H-pyrazol-4-yl)quinoline-8-carboxamide]
- pIC50 (Pim-1): ≥ 8.00
- pIC50 (Pim-3): ≥ 8.00
- pIC50 (Pim-2): 6.00 to 7.00

SMILES: COC1CCCN(c2cnc3c(C(=O)Nc4cnccc4[C@@H]4C[C@H](C)C[C@H](N)C4)ccc(F)c3c2)C1 (stereo in doubt) [Example 12, N-{4-[(1R,3S,5S)-3-Amino-5-methylcyclohexyl]pyridin-3-yl}-5-fluoro-3-[(3S)-3-methoxypiperidin-1-yl]quinoline-8-carboxamide]
- pIC50 (Pim-1): ≥ 8.00
- pIC50 (Pim-3): ≥ 8.00
- pIC50 (Pim-2): 6.00 to 7.00

SMILES: COc1ccccc1N(C)c1cnc2c(C(=O)Nc3cnccc3[C@@H]3C[C@H](C)C[C@H](N)C3)ccc(F)c2c1 [Example 152, N-(4-((1R,3S,5S)-3-Amino-5-methylcyclohexyl)pyridin-3-yl)-5-fluoro-3-((2-methoxyphenyl)(methyl)amino)quinoline-8-carboxamide]
- pIC50 (Pim-1): ≥ 8.00
- pIC50 (Pim-3): ≥ 8.00
- pIC50 (Pim-2): ≥ 7.00

SMILES: C[C@@H]1C[C@H](N)C[C@H](c2ccncc2NC(=O)c2ccc(F)c3cc(N4CCN(S(=O)(=O)N(C)C)CC4)cnc23)C1 [Example 74, N-(4-((1R,3S,5S)-3-Amino-5-methylcyclohexyl)pyridin-3-yl)-3-(4-(N,N-dimethylsulfamoyl)piperazin-1-yl)-5-fluoroquinoline-8-carboxamide]
- pIC50 (Pim-1): ≥ 8.00
- pIC50 (Pim-3): ≥ 8.00
- pIC50 (Pim-2): 6.00 to 7.00

SMILES: CO[C@H]1CCN(c2cnc3c(C(=O)Nc4cnccc4[C@@H]4C[C@H](C)C[C@H](N)C4)ccc(F)c3c2)[C@H](C)C1 [Example 159, N-(4-((1R,3S,5S)-3-Amino-5-methylcyclohexyl)pyridin-3-yl)-5-fluoro-3-((2R,4S)-4-methoxy-2-methylpiperidin-1-yl)quinoline-8-carboxamide]
- pIC50 (Pim-1): ≥ 8.00
- pIC50 (Pim-3): ≥ 8.00
- pIC50 (Pim-2): ≥ 7.00

SMILES: Cc1nn(C)cc1-c1cnc2c(C(=O)Nc3cnccc3[C@@H]3C[C@H](C)C[C@H](N)C3)ccc(F)c2c1 [Example 63, N-(4-((1R,3S,5S)-3-Amino-5-methylcyclohexyl)pyridin-3-yl)-3-(1,3-dimethyl-1H-pyrazol-4-yl)-5-fluoroquinoline-8-carboxamide]
- pIC50 (Pim-1): ≥ 8.00
- pIC50 (Pim-3): ≥ 8.00
- pIC50 (Pim-2): 6.00 to 7.00

SMILES: C[C@@H]1C[C@H](N)C[C@H](c2ccncc2NC(=O)c2ccc(F)c3cc(N4CC[C@H](F)C4)cnc23)C1 [Example 5, N-{4-[(1R,3S,5S)-3-Amino-5-methylcyclohexyl]pyridin-3-yl}-5-fluoro-3-[(3S)-3-fluoropyrrolidin-1-yl]quinoline-8-carboxamide]
- pIC50 (Pim-1): ≥ 8.00
- pIC50 (Pim-3): ≥ 8.00
- pIC50 (Pim-2): ≥ 7.00

SMILES: CC1CCC1N(C)c1cnc2c(C(=O)Nc3cnccc3[C@@H]3C[C@H](C)C[C@H](N)C3)ccc(F)c2c1 (stereo partly drawn) [Example 147, N-(4-((1R,3S,5S)-3-Amino-5-methylcyclohexyl)pyridin-3-yl)-5-fluoro-3-(methyl(2-methylcyclobutyl)amino)quinoline-8-carboxamide]
- pIC50 (Pim-1): ≥ 8.00
- pIC50 (Pim-3): ≥ 8.00
- pIC50 (Pim-2): ≥ 7.00

SMILES: C[C@@H]1C[C@H](N)C[C@H](c2ccncc2NC(=O)c2ccc(F)c3cc(-c4cnn(C)c4)cnc23)C1 [Example 64, N-(4-((1R,3S,5S)-3-Amino-5-methylcyclohexyl)pyridin-3-yl)-5-fluoro-3-(1-methyl-1H-pyrazol-4-yl)quinoline-8-carboxamide]
- pIC50 (Pim-1): ≥ 8.00
- pIC50 (Pim-3): ≥ 8.00
- pIC50 (Pim-2): 6.00 to 7.00

SMILES: C[C@@H]1C[C@H](N)C[C@H](c2ccncc2NC(=O)c2ccc(F)c3cc(N4CCCC(O)CC4)cnc23)C1 (stereo partly drawn) [Example 104, N-(4-((1R,3S,5S)-3-Amino-5-methylcyclohexyl)pyridin-3-yl)-5-fluoro-3-(4-hydroxyazepan-1-yl)quinoline-8-carboxamide]
- pIC50 (Pim-1): ≥ 8.00
- pIC50 (Pim-3): ≥ 8.00
- pIC50 (Pim-2): ≥ 7.00
